What all share (assay): relative viability (nuclei count vs DMSO), 5 days (fraction); higher = more cells survive
Compound in assay [1]: COCC[n+]1c2c(n(Cc3cnccn3)c1C)C(=O)c1ccccc1C2=O [YM155] + C[C@]1(O)C[C@@H](c2nc(-c3ccc4ccc(-c5ccccc5)nc4c3)c3c(N)nccn32)C1 [Linsitinib] (partner 1 µM)
The method, boiled down:
(§1)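 Relative viability is defined as nuclei in treated wells over nuclei in vehicle wells. Duplicate plates were run and medians reported. Lung cancer cell lines in 1536-well plates were dosed by pin tool one day after seeding, with one drug or with a fixed anchor-drug dose plus five library-drug doses (not always all listed) in √10 steps, and nuclei were counted after 5 days.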

Compound in assay [2]: COCC[n+]1c2c(n(Cc3cnccn3)c1C)C(=O)c1ccccc1C2=O [YM155] + COc1cc2c(Oc3ccc(NC(=O)C4(C(=O)Nc5ccc(F)cc5)CC4)cc3F)ccnc2cc1OCCCN1CCOCC1 [Foretinib] (partner 0.25 µM)
The method, boiled down:
as §1

Compound in assay [3]: CC(C)(C)c1cc(NC(=O)Nc2ccc(-c3cn4c(n3)sc3cc(OCCN5CCOCC5)ccc34)cc2)no1 [Quizartinib] + Cc1cc(Nc2cc(N3CCN(C)CC3)nc(Sc3ccc(NC(=O)C4CC4)cc3)n2)n[nH]1 [Tozasertib] (partner 0.1 µM)
The method, boiled down: as §1

Compound in assay [4]: COCC[n+]1c2c(n(Cc3cnccn3)c1C)C(=O)c1ccccc1C2=O [YM155] + CC(C)C[C@H](NC(=O)[C@H](Cc1ccccc1)NC(=O)c1cnccn1)B(O)O [Bortezomib] (partner 0.002 µM)
Summed up: as §1

Take RERF-LC-KJ: the relative viability amounted to 0.859 in assay [1] (first compound 0.002 µM); 0.878 in assay [1] (first compound 0.006325 µM); 0.923 in assay [1] (first compound 0.02 µM); 0.864 in assay [1] (first compound 0.06325 µM); 0.945 in assay [2] (first compound 0.002 µM); 0.837 in assay [2] (first compound 0.006325 µM). Further, the relative viability was determined as 0.909 in assay [2] (first compound 0.02 µM); 0.854 in assay [2] (first compound 0.06325 µM); 0.47 in assay [3] (first compound 0.001 µM); 0.445 in assay [3] (first compound 0.003162 µM); 0.53 in assay [3] (first compound 0.01 µM); 0.248 in assay [3] (first compound 0.03162 µM). Besides, the relative viability in assay [3] (first compound 0.1 µM) turned out to be 0.337; in assay [4] (first compound 0.002 µM), 1.11; in assay [4] (first compound 0.006325 µM) it was 1.18; in assay [4] (first compound 0.02 µM), 1.09; in assay [4] (first compound 0.06325 µM), 1.25.
For SK-LU-1, the relative viability worked out at 1.08 in assay [1] (first compound 0.002 µM); 1.04 in assay [1] (first compound 0.006325 µM); 1.21 in assay [1] (first compound 0.02 µM); 0.708 in assay [1] (first compound 0.06325 µM); 0.766 in assay [2] (first compound 0.002 µM); 0.738 in assay [2] (first compound 0.006325 µM). Further, the relative viability in assay [2] (first compound 0.02 µM) worked out at 0.904; in assay [2] (first compound 0.06325 µM), 0.661; in assay [3] (first compound 0.001 µM), 0.268; in assay [3] (first compound 0.003162 µM), 0.303; in assay [3] (first compound 0.01 µM) it was 0.378; in assay [3] (first compound 0.03162 µM) it was 0.319. For the same cell line, the relative viability in assay [3] (first compound 0.1 µM) worked out at 0.309; in assay [4] (first compound 0.002 µM) it was 1.05; in assay [4] (first compound 0.006325 µM), 1.04; in assay [4] (first compound 0.02 µM) it was 1.54; in assay [4] (first compound 0.06325 µM), 1.09.
On to SW 1573, for which the relative viability was found to be 0.88 in assay [1] (first compound 0.002 µM); 0.939 in assay [1] (first compound 0.006325 µM); 0.769 in assay [1] (first compound 0.02 µM); 0.686 in assay [1] (first compound 0.06325 µM); 0.986 in assay [2] (first compound 0.002 µM); 0.974 in assay [2] (first compound 0.006325 µM). Besides, the relative viability in assay [2] (first compound 0.02 µM) worked out at 0.92; in assay [2] (first compound 0.06325 µM) it was 0.877; in assay [3] (first compound 0.001 µM) it was 0.163; in assay [3] (first compound 0.003162 µM), 0.175; in assay [3] (first compound 0.01 µM), 0.225; in assay [3] (first compound 0.1 µM), 0.265. For the same cell line, the relative viability in assay [4] (first compound 0.002 µM) worked out at 0.95; in assay [4] (first compound 0.006325 µM) it was 0.946; in assay [4] (first compound 0.02 µM), 0.954; in assay [4] (first compound 0.06325 µM) it was 0.568.
Consider UMC-11, for which the relative viability in assay [1] (first compound 0.002 µM) amounted to 0.993; in assay [1] (first compound 0.006325 µM) it was 1.05; in assay [1] (first compound 0.02 µM) it was 1.02; in assay [1] (first compound 0.06325 µM), 1.03; in assay [2] (first compound 0.002 µM) it was 0.966; in assay [2] (first compound 0.006325 µM), 1.1. Also, the relative viability was 1.08 in assay [2] (first compound 0.02 µM); 1.12 in assay [2] (first compound 0.06325 µM); 0.194 in assay [3] (first compound 0.003162 µM); 0.204 in assay [3] (first compound 0.01 µM); 0.223 in assay [3] (first compound 0.03162 µM); 0.222 in assay [3] (first compound 0.1 µM). Besides, the relative viability was determined as 0.692 in assay [4] (first compound 0.002 µM), 0.557 in assay [4] (first compound 0.006325 µM), 0.719 in assay [4] (first compound 0.02 µM) and 0.667 in assay [4] (first compound 0.06325 µM).
